Where two headings read alike, the source gives them in different places.
How the values were obtained:
[1] = Biodistribution, PC-3 xenograft mice; assay type: in vivo, NOD SCID mice; details: female, NOD SCID, intravenous, total radioactivity; for tissue uptake at 7.3 h: Mouse #2, 7.3 h p.i., 1.43 nmol; for tissue uptake at 7.3 h / tissue uptake at 4 h / tissue uptake at 25.1 h: single tracer, PC-3 xenograft; for tissue uptake at 4 h: Mouse #3, 4 h p.i., 1.49 nmol; for tissue uptake at 25.1 h: Mouse #1, 25.1 h p.i., 1.34 nmol
Excerpt: (§1) Tumor growth and body weight were monitored daily. […]
(§2) 3.6.1 Biodistribution studies
(§3) xenograft-bearing female NOD SCID mice. […]

PC-3 xenograft = test: Biodistribution, PC-3 xenograft mice; assay type: in vivo, NOD SCID mice; details: single tracer, PC-3 xenograft
Excerpt: as §1, §2, §3

PC-3 xenografts = test system: PC-3 xenografts; set-up: method as in Mansi et al. [37]; details: 24 h p.i.; female nude mice; i.v. 10 pmol; n = 4; ref Mansi et al. [37]; cited from earlier work
[2] = Biodistribution, CHO-K1-GRPR + CHO-K1-PSMA dual xenograft mice; details: female, NOD SCID, mouse, intravenous, total radioactivity; for tissue uptake at 24.2 h / tissue uptake at 25.2 h: single tracer; for tissue uptake at 24.2 h / tissue uptake at 25.8 h / tissue uptake at 25.2 h / tissue uptake at 17.6 h: dual xenograft; for tissue uptake at 24.2 h: 24.2 h p.i.; for tissue uptake at 25.8 h: 1 nmol, Mouse #8, 25.8 h p.i., 1.00 nmol; for tissue uptake at 25.8 h / tissue uptake at 17.6 h: dual tracer; for tissue uptake at 25.2 h: 1.08 nmol, Mouse #6, 25.2 h p.i.; for tissue uptake at 17.6 h: 2.69 nmol, Mouse #9, 17.6 h p.i.; for tissue uptake: CHO-K1-GRPR xenograft tumor, Uptake in CHO-K1-GRPR xenografts, range
Experimental: Six-to-eight-week-old female immunodeficient mice (NOD SCID) were obtained from the Core facility laboratory animal breeding and husbandry of the Medical University of Vienna, Himberg, Austria. Animals were kept in individually ventilated cages with 12 h light–dark cycle. All experiments were approved by the Federal Ministry of Education, Science and Research, Republic of Austria (2020-0.253.820 and BMBWF-66.009/0122-V/3b/2019) and performed according to the guidelines from the Federation of the European Laboratory Animal Science Associations (FELASA). After an acclimatization period of two weeks, animals were injected with 3 × 10^6 CHO-K1-GRPR cells in the right flank and 3 × 10^6 CHO-K1-PSMA cells in the left flank (3 × 10^6 in 100 µL serum-free medium each). It should be noted that approximately the same passage (±1 passage number) was used for inoculation for both cell lines to ensure similar cell viability, target incidence, and density in vivo. Tracer uptake (and thus target expression) was confirmed three days prior to inoculation in cell uptake experiments. […] Tumor growth and body weight were monitored daily. Animals were subjected to imaging after 1.5–2 weeks of tumor growth (final tumor volume of 100–800 mm^3). Endpoints were defined as rapid weight loss up to 20% body weight, tumor volume ≥ 1000 mm^3, tumor volume < 1000 mm^3 with signs of necrosis (ulcerated surface), as well as clearly detectable apathy and pain upon touch.
Animals used in imaging studies were sacrificed at different time points post injectionem (p.i.) after the last imaging time point by cervical dislocation under isofluorane anesthesia. Selected organs were removed and weighed, and organ activities were measured in a γ-counter. For animals in which a dual-tracer cocktail was administered, the organs were measured several times over a period of 2–3 weeks to use these datasets in specific calculation methods (Section 3.6 in the SI) to obtain the correct activity for each individual radionuclide at the start of the measurement series.
[99mTc]Tc-PSMA-I&S or both (dual tracer cocktail) were injected into the tail vein of tumor
xenograft-bearing female NOD SCID mice. They were sacrificed by cervical dislocation under
isofluoran anesthesia at different time points post injectionem (p.i.) after the last imaging time
point. Selected organs were removed, weighed and organ activities measured in a γ-counter.

[3] = PC-3 tumor, read-out: Biodistribution: PC-3 Tumor
[4] = bone, read-out: Biodistribution: Bone
[5] = colon (empty), read-out: Biodistribution: Colon (empty)
[6] = intestine (empty), read-out: Biodistribution: Intestine (empty)
[7] = liver, read-out: Biodistribution: Liver
[8] = muscle, read-out: Biodistribution: Muscle
[9] = spleen, read-out: Biodistribution: Spleen
[10] = stomach (empty), read-out: Biodistribution: Stomach (empty)
[11] = Mouse #1, 25.1 h p.i., 1.34 nmol
[12] = CHO-K1-GRPR tumor, Biodistribution: CHO-K1-GRPR Tumor
[13] = CHO-K1-PSMA tumor, Biodistribution: CHO-K1-PSMA Tumor
[14] = adrenal, Biodistribution: Adrenal
[15] = kidney, Biodistribution: Kidney
[16] = muscle, Biodistribution: Muscle
[17] = pancreas, Biodistribution: Pancreas
[18] = spleen, Biodistribution: Spleen
[19] = stomach (empty), Biodistribution: Stomach (empty)

CC(C)C[C@H](NC(=O)C[C@H](O)[C@H](CC(C)C)NC(=O)[C@H](Cc1c[nH]cn1)NC(=O)CNC(=O)[C@@H](NC(=O)[C@H](C)NC(=O)[C@H](Cc1c[nH]c2ccccc12)NC(=O)[C@H](CCC(N)=O)NC(=O)[C@@H](Cc1ccccc1)NC(=O)CN1CCC(NC(=O)CN2CCN(CC(=O)O)CCN(CC(=O)O)CCN(CC(=O)O)CC2)CC1)C(C)C)C(N)=O [[^111In]In-RM2, metal not drawn]
tissue uptake at 7.3 h [1, 3]: 1.36 %ID/g
tissue uptake at 4 h [1, 3]: 2.75 %ID/g
tissue uptake at 4 h ([1]; adrenal, read-out: Biodistribution: Adrenal): 0.13 %ID/g
tissue uptake at 25.1 h [1, 4]: 0.07 %ID/g
tissue uptake at 4 h [1, 4]: 0.04 %ID/g
tissue uptake at 25.1 h [1, 5]: 0.04 %ID/g
tissue uptake at 7.3 h [1, 5]: 0.04 %ID/g
tissue uptake at 7.3 h ([1]; heart, read-out: Biodistribution: Heart): 0.02 %ID/g
tissue uptake at 25.1 h [1, 6]: 0.08 %ID/g
tissue uptake at 4 h [1, 6]: 0.08 %ID/g
tissue uptake at 7.3 h ([1]; kidney, read-out: Biodistribution: Kidney): 1.29 %ID/g
tissue uptake at 25.1 h [1, 7]: 0.17 %ID/g
tissue uptake at 7.3 h [1, 7]: 0.12 %ID/g
tissue uptake at 4 h [1, 7]: 0.22 %ID/g
tissue uptake ([1]; mouse, PC-3 xenograft tumor, 4-25.1 h p.i., range over mice, read-out: Uptake in PC-3 xenografts): 1.36 to 2.75 %ID/g
tissue uptake at 25.1 h [1, 8]: 0.01 %ID/g
tissue uptake at 7.3 h [1, 8]: 0.01 %ID/g
tissue uptake at 4 h [1, 8]: 0.01 %ID/g
tissue uptake at 25.1 h ([1]; pancreas, read-out: Biodistribution: Pancreas): 0.06 %ID/g
tissue uptake at 25.1 h [1, 9]: 0.16 %ID/g
tissue uptake at 7.3 h [1, 9]: 0.13 %ID/g
tissue uptake at 4 h [1, 9]: 0.1 %ID/g
tissue uptake at 7.3 h [1, 10]: 0.02 %ID/g
tissue uptake at 4 h [1, 10]: 0.09 %ID/g
Biodistribution: Kidney (PC-3 xenograft; [11]): 2.17 % ID/g
Biodistribution: PC-3 Tumor (PC-3 xenograft; [11]): 2.20 % ID/g
Biodistribution: Heart (PC-3 xenograft; Mouse #3, 4 h p.i., 1.49 nmol): 0.02 % ID/g
Biodistribution: Kidney (PC-3 xenograft; Mouse #3, 4 h p.i., 1.49 nmol): 2.20 % ID/g
Uptake in PC-3 xenografts (PC-3 xenografts): 6.84 ± 1.02 % ID/g
tissue uptake at 24.2 h ([2]; CHO-K1-GRPR tumor, 0.37 nmol, Biodistribution: CHO-K1-GRPR Tumor, Mouse #5, 0.37 nmol): 0.51 %ID/g
tissue uptake at 24.2 h ([2]; CHO-K1-GRPR tumor, 0.58 nmol, Biodistribution: CHO-K1-GRPR Tumor, Mouse #4, 0.58 nmol): 0.28 %ID/g
tissue uptake at 25.8 h [2, 12]: 0.38 %ID/g
tissue uptake at 25.2 h [2, 12]: 0.33 %ID/g
tissue uptake at 24.2 h ([2]; CHO-K1-GRPR tumor, 1.41 nmol, Biodistribution: CHO-K1-GRPR Tumor, Mouse #7, 1.41 nmol): 0.06 %ID/g
tissue uptake at 17.6 h [2, 12]: 0.26 %ID/g
tissue uptake ([2]; dual-tracer mice #8 and #9): 0.26 to 0.38 %ID/g
tissue uptake ([2]; single-tracer mice #4–#7): 0.06 to 0.51 %ID/g
tissue uptake at 24.2 h ([2]; CHO-K1-PSMA tumor, 0.37 nmol, Biodistribution: CHO-K1-PSMA Tumor, Mouse #5, 0.37 nmol): 0.08 %ID/g
tissue uptake at 25.8 h [2, 13]: 0.08 %ID/g
tissue uptake at 25.2 h [2, 13]: 0.09 %ID/g
tissue uptake at 24.2 h ([2]; CHO-K1-PSMA tumor, 1.41 nmol, Biodistribution: CHO-K1-PSMA Tumor, Mouse #7, 1.41 nmol): 0.08 %ID/g
tissue uptake at 17.6 h [2, 13]: 0.09 %ID/g
tissue uptake at 24.2 h ([2]; adrenal, 0.37 nmol, Biodistribution: Adrenal, Mouse #5, 0.37 nmol): 0.33 %ID/g
tissue uptake at 24.2 h ([2]; adrenal, 0.58 nmol, Biodistribution: Adrenal, Mouse #4, 0.58 nmol): 0.12 %ID/g
tissue uptake at 25.2 h [2, 14]: 0.16 %ID/g
tissue uptake at 24.2 h ([2]; adrenal, 1.41 nmol, Biodistribution: Adrenal, Mouse #7, 1.41 nmol): 0.08 %ID/g
tissue uptake at 17.6 h [2, 14]: 0.12 %ID/g
tissue uptake at 25.8 h ([2]; blood, Biodistribution: Blood): 0.02 %ID/g
tissue uptake at 25.2 h ([2]; blood, Biodistribution: Blood): 0.01 %ID/g
tissue uptake at 24.2 h ([2]; blood, 1.41 nmol, Biodistribution: Blood, Mouse #7, 1.41 nmol): 0.01 %ID/g
tissue uptake at 17.6 h ([2]; blood, Biodistribution: Blood): 0.02 %ID/g
tissue uptake at 24.2 h ([2]; bone, 0.37 nmol, Biodistribution: Bone, Mouse #5, 0.37 nmol): 0.04 %ID/g
tissue uptake at 24.2 h ([2]; bone, 0.58 nmol, Biodistribution: Bone, Mouse #4, 0.58 nmol): 0.04 %ID/g
tissue uptake at 25.8 h ([2]; bone, Biodistribution: Bone): 0.06 %ID/g
tissue uptake at 25.2 h ([2]; bone, Biodistribution: Bone): 0.06 %ID/g
tissue uptake at 24.2 h ([2]; bone, 1.41 nmol, Biodistribution: Bone, Mouse #7, 1.41 nmol): 0.04 %ID/g
tissue uptake at 24.2 h ([2]; colon (empty), 0.37 nmol, Biodistribution: Colon (empty), Mouse #5, 0.37 nmol): 0.08 %ID/g
tissue uptake at 24.2 h ([2]; colon (empty), 0.58 nmol, Biodistribution: Colon (empty), Mouse #4, 0.58 nmol): 0.04 %ID/g
tissue uptake at 25.8 h ([2]; colon (empty), Biodistribution: Colon (empty)): 0.04 %ID/g
tissue uptake at 24.2 h ([2]; heart, 0.58 nmol, Biodistribution: Heart, Mouse #4, 0.58 nmol): 0.02 %ID/g
tissue uptake at 24.2 h ([2]; heart, 1.41 nmol, Biodistribution: Heart, Mouse #7, 1.41 nmol): 0.02 %ID/g
tissue uptake at 24.2 h ([2]; intestine (empty), 0.37 nmol, Biodistribution: Intestine (empty), Mouse #5, 0.37 nmol): 0.06 %ID/g
tissue uptake at 24.2 h ([2]; intestine (empty), 1.41 nmol, Biodistribution: Intestine (empty), Mouse #7, 1.41 nmol): 0.04 %ID/g
tissue uptake at 17.6 h ([2]; intestine (empty), Biodistribution: Intestine (empty)): 0.04 %ID/g
tissue uptake at 24.2 h ([2]; kidney, 0.37 nmol, Biodistribution: Kidney, Mouse #5, 0.37 nmol): 1.42 %ID/g
tissue uptake at 24.2 h ([2]; kidney, 0.58 nmol, Biodistribution: Kidney, Mouse #4, 0.58 nmol): 1.14 %ID/g
tissue uptake at 25.8 h [2, 15]: 1.07 %ID/g
tissue uptake at 25.2 h [2, 15]: 1.69 %ID/g
tissue uptake at 24.2 h ([2]; kidney, 1.41 nmol, Biodistribution: Kidney, Mouse #7, 1.41 nmol): 1.34 %ID/g
tissue uptake at 17.6 h [2, 15]: 1.09 %ID/g
tissue uptake at 24.2 h ([2]; liver, 0.37 nmol, Biodistribution: Liver, Mouse #5, 0.37 nmol): 0.13 %ID/g
tissue uptake at 24.2 h ([2]; liver, 0.58 nmol, Biodistribution: Liver, Mouse #4, 0.58 nmol): 0.1 %ID/g
tissue uptake at 25.8 h ([2]; liver, Biodistribution: Liver): 0.28 %ID/g
tissue uptake at 25.2 h ([2]; liver, Biodistribution: Liver): 0.2 %ID/g
tissue uptake at 24.2 h ([2]; liver, 1.41 nmol, Biodistribution: Liver, Mouse #7, 1.41 nmol): 0.17 %ID/g
tissue uptake at 17.6 h ([2]; liver, Biodistribution: Liver): 0.13 %ID/g
tissue uptake at 25.8 h ([2]; lung, Biodistribution: Lung): 0.04 %ID/g
tissue uptake at 24.2 h ([2]; lung, 1.41 nmol, Biodistribution: Lung, Mouse #7, 1.41 nmol): 0.04 %ID/g
tissue uptake at 24.2 h ([2]; muscle, 0.37 nmol, Biodistribution: Muscle, Mouse #5, 0.37 nmol): 0.01 %ID/g
tissue uptake at 24.2 h ([2]; muscle, 0.58 nmol, Biodistribution: Muscle, Mouse #4, 0.58 nmol): 0.01 %ID/g
tissue uptake at 25.8 h [2, 16]: 0.01 %ID/g
tissue uptake at 25.2 h [2, 16]: 0.02 %ID/g
tissue uptake at 24.2 h ([2]; muscle, 1.41 nmol, Biodistribution: Muscle, Mouse #7, 1.41 nmol): 0.01 %ID/g
tissue uptake at 17.6 h [2, 16]: 0.01 %ID/g
tissue uptake at 24.2 h ([2]; pancreas, 0.37 nmol, Biodistribution: Pancreas, Mouse #5, 0.37 nmol): 0.1 %ID/g
tissue uptake at 24.2 h ([2]; pancreas, 0.58 nmol, Biodistribution: Pancreas, Mouse #4, 0.58 nmol): 0.07 %ID/g
tissue uptake at 25.8 h [2, 17]: 0.07 %ID/g
tissue uptake at 25.2 h [2, 17]: 0.06 %ID/g
tissue uptake at 24.2 h ([2]; pancreas, 1.41 nmol, Biodistribution: Pancreas, Mouse #7, 1.41 nmol): 0.04 %ID/g
tissue uptake at 17.6 h [2, 17]: 0.04 %ID/g
tissue uptake at 24.2 h ([2]; spleen, 0.37 nmol, Biodistribution: Spleen, Mouse #5, 0.37 nmol): 0.08 %ID/g
tissue uptake at 24.2 h ([2]; spleen, 0.58 nmol, Biodistribution: Spleen, Mouse #4, 0.58 nmol): 0.07 %ID/g
tissue uptake at 25.8 h [2, 18]: 0.25 %ID/g
tissue uptake at 25.2 h [2, 18]: 0.13 %ID/g
tissue uptake at 24.2 h ([2]; spleen, 1.41 nmol, Biodistribution: Spleen, Mouse #7, 1.41 nmol): 0.08 %ID/g
tissue uptake at 17.6 h [2, 18]: 0.1 %ID/g
tissue uptake at 24.2 h ([2]; stomach (empty), 0.37 nmol, Biodistribution: Stomach (empty), Mouse #5, 0.37 nmol): 0.04 %ID/g
tissue uptake at 25.8 h [2, 19]: 0.04 %ID/g
tissue uptake at 25.2 h [2, 19]: 0.04 %ID/g

From publication PMC12298007 (Pharmaceuticals, 2025)
